# Source: patent US8822674B2, “Crystal form of 4-isopropylphenyl glucitol compound and process for production thereof” (Taisho Pharmaceutical Co., Ltd, priority 2010, dated 2014)
# How the values were obtained:
# [1] = Renal concentrations until one week after single oral administration; format: in vivo; conditions: Sprague-Dawley (SD/IGS), rat, 1 mg/kg po, male Sprague-Dawley rats, kidney
# Method: SD/IGS rats at 7 weeks of age (male, non-fasting, Charles River Laboratories Japan Inc.) were orally administered with compound 4, 10 or 33 (1 mg/kg each) or compound 11 (0.3 mg/kg) prepared in a 0.5% aqueous CMC solution. At 24, 72 and 168 hours after drug administration, the rats were exsanguinated via the postcaval vein under ether anesthesia, and their kidneys were excised after they were confirmed to be euthanized. After the tissue surface was washed with physiological saline, each tissue was measured for its weight and homogenized in 4 volumes of purified water under ice cooling. To each homogenate, an acetonitrile/methanol solution containing an internal standard substance was added to remove proteins, and the supernatant was then subjected to LC-MS/MS (Applied Biosystems API3000). Drug-derived ions generated by electrospray ionization in positive ion mode were detected by selective reaction monitoring. The peak area of the resulting extracted ion chromatogram was analyzed by the internal standard method to calculate the drug concentration in the homogenate.
# As the internal standard material for Compounds 10 and 33, (1S)-1,5-anhydro-1-[5-(4-ethoxybenzyl)-2-methoxy-4-methylphenyl]-1-thio-D-glucitol,ethyl-D5 was used. As the internal standard materials for Compounds 4 and 11, Compound II and deuterium-labeled Compound II (trishydroxymethyl-D6; —C(CD2OH)3), respectively, were used.
# [2] = Renal concentration after repeated oral administration for 3 days; format: in vivo, rat; conditions: 3 mg/kg for 3 consecutive days, subsequent day 2
# Method: At 48 hours after the final drug administration, the rats were exsanguinated via the postcaval vein under isoflurane anesthesia, and their kidneys were excised after they were confirmed to be euthanized. After the tissue surface was washed with physiological saline, each tissue was measured for its weight and homogenized in 4 volumes of purified water under ice cooling. The drug concentration in each homogenate was determined in the same manner as shown in Test Example 3(1) by LC-MS/MS using compound II as an internal standard substance.
# [3] = tested on: streptozotocin (STZ)-induced diabetic rats; test: Oral glucose tolerance test in streptozotocin diabetic model rats; format: in vivo, rat
# Method: SD/IGS rats at 7 weeks of age (male, Charles River Laboratories Japan Inc.) were fasted for about 16 hours and then injected with 50 mg/kg streptozotocin (STZ) via the caudal vein under ether anesthesia to prepare diabetic model rats. Similarly, another group of SD/IGS rats at 7 weeks of age was injected with 1.25 mmol/L citric acid in physiological saline (1 mL/kg) via the tail vein under ether anesthesia to prepare normal control rats. At one week after injection of STZ or 1.25 mmol/L citric acid in physiological saline, the rats (8 weeks old) were provided for an oral glucose tolerance test. […]
# Blood was collected from the caudal veins of the rats under ether anesthesia with the use of a heparin-coated blood collecting tube and centrifuged, whereafter blood plasma was separated. Plasma glucose concentrations were quantified by measurement with a Glucose CII-Test Wako (Wako Pure Chemical Industries, Ltd., Japan). To determine the intensity of hypoglycemic effect, the blood glucose level before drug administration was subtracted from each blood glucose level measured until one hour after oral administration in each drug group, and the resulting values were analyzed by the trapezoidal method to calculate an increment in the area under the curve for glucose (ΔAUC), which was expressed as a decrease relative to ΔAUC of the control group.
# [4] = biological target: T1, human SGLT2 protein modified to have LeuGluSerArgGlyProVal added to the carboxy-terminal final residue (Homo sapiens, UniProt P31639); test: Inhibition test for sodium-dependent sugar uptake in CHO-K1 cells stably expressing human SGLT2, Method A; format: cell-based; conditions: summary of Table 1; method not specified
# T1 construct: expressed in transfected cells; host or cells: CHO-K1
# T1 sequence (P31639 with tags, fused parts or gaps): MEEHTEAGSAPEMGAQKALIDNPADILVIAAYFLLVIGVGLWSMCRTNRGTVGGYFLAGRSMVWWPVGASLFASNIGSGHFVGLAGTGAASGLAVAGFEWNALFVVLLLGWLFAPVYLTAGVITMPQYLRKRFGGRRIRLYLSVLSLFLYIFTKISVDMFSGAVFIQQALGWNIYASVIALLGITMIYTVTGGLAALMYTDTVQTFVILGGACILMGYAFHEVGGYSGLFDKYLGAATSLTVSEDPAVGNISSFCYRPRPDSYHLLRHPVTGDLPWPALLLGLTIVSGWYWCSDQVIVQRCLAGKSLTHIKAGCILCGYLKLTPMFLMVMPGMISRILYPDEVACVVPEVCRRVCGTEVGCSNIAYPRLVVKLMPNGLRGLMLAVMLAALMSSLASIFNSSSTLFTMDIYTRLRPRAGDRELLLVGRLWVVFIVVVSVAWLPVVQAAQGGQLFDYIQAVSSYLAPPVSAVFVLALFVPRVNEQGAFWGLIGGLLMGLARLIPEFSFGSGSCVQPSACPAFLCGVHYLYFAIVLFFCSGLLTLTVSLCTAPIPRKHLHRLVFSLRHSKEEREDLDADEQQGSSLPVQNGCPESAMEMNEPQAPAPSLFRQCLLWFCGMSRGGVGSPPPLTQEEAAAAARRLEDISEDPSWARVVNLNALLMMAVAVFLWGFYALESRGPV
# Method: Method A (described in WO2007/136116): A plasmid vector expressing human SGLT2 protein modified to have LeuGluSerArgGlyProVal added to the carboxy-terminal final residue was transfected into CHO-K1 cells using lipofectamine 2000 (Invitrogen). The cells were cultured in the presence of 500 μg/mL hygromycin B to select resistant strains, followed by screening in the system shown below using sugar uptake capacity as an indicator to obtain SGLT2-expressing cells.
# (§1) The stably expressing cells prepared above were used in the following test.
# (§2) Pretreatment buffer (140 mM choline chloride, 2 mM KCl, 1 mM CaCl2, 1 mM MgCl2, 10 mM HEPES/5 mM Tris, pH 7.4) was added in a volume of 200 μL to the cells stably expressing SGLT1 or 2 mL for Method A and 200 μL for Method B to the cells stably expressing SGLT2, followed by incubation for 20 minutes. […] A liquid scintillator (Perkin Elmer) was added and mixed well with each sample, followed by measurement of radioactivity using a β-ray analyzer. […]
# human SGLT1 = biological target: T2, human SGLT1 (Homo sapiens, UniProt P13866); test: Inhibition test for sodium-dependent sugar uptake in CHO-K1 cells stably expressing human SGLT1; format: cell-based; conditions: summary of Table 1
# T2 construct: expressed in transfected cells; host or cells: CHO-K1
# T2 sequence (P13866 1-664): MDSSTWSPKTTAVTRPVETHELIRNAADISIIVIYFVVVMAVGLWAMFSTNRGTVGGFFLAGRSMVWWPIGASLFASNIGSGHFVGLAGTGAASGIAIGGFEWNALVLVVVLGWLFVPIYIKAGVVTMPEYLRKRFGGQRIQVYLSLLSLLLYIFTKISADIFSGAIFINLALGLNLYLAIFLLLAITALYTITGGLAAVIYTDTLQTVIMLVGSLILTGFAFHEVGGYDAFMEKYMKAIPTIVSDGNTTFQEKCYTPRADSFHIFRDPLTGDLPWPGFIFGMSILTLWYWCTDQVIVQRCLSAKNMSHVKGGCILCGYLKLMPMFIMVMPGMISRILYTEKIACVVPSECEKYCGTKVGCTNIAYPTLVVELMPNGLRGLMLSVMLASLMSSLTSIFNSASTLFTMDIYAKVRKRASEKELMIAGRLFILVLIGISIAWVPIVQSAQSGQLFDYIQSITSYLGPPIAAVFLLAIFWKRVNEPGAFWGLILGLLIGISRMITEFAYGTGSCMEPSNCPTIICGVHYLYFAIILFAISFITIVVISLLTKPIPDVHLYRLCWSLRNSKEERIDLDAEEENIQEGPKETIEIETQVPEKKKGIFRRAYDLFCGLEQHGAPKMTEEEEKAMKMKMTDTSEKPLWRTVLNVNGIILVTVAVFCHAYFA
# Method: A plasmid vector expressing human SGLT1 protein was transfected into CHO-K1 cells using lipofectamine 2000 (Invitrogen). The cells were cultured in the presence of 500 μg/mL geneticin to select resistant strains, followed by screening in the system shown below using sugar uptake capacity as an indicator to obtain SGLT1-expressing cells.
# as §1
# as §2, with “minutes. The pretreatment buffer was removed and replaced by uptake buffer containing a test compound (1 mM methyl α-D-glucopyranoside (containing [^14C]methyl α-D-glucopyranoside), 140 mM NaCl, 2 mM KCl, 1 mM CaCl2, 1 mM MgCl2, 10 mM HEPES/5 mM Tris, pH 7.4) in a volume of 75 μL for SGLT1 and SGLT2 in Method B or 200 μL for SGLT2 in Method A. Uptake reaction was performed at 37° C. for 30 minutes (SGLT1) or 60 minutes (SGLT2).” for “minutes.”
"concentration at 1 day ([1]; 1 day, read-out: Concentration of compounds in kidney after single oral administration, After 1 day)","concentration at 3 days ([1]; 3 days, read-out: Concentration of compounds in kidney after single oral administration, After 3 days)","concentration at 7 days ([1]; 7 days, read-out: Concentration of compounds in kidney after single oral administration, After 7 days)",remaining in the kidney after repeated administration (in words) [2],SGLT2 inhibiting activity (in words) [4],SGLT1 inhibiting activity (in words) (human SGLT1),SMILES,"STZ rats OGTT % inhibition ΔAUC0−1 h (mg/dl) @1 mg/kg/po ([3]; STZ-induced diabetic rats, oral dose 1 mg/kg, glucose 2 g/kg, versus vehicle control)",hypoglycemic action in the glucose tolerance test (in words) ([3]; oral administration of 1 mg/kg)
68.4 ± 7.49 ng/g,85.5 ± 23.1 ng/g,76.3 ± 15.5 ng/g,–,–,–,Cc1cc(O)c([C@@H]2O[C@H](CO)[C@@H](O)[C@H](O)[C@H]2O)cc1Cc1ccc(CCCC(=O)NC(C)(C)C(N)=O)cc1 [compound 4],–,–
–,–,–,did not remain in the kidney,"some, although weak",strong,"COc1cc(C(C)C)c(Cc2ccc(/C=C/C(C)(C)C(=O)NC(C)(C)C(=O)NCCN(C)C)cc2)cc1[C@@H]1O[C@H](CO)[C@@H](O)[C@H](O)[C@H]1O [compound (A), (1S)-1,5-anhydro-1-[5-(4-{(1E)-4-[(1-{[2-(dimethylamino)ethyl]amino}-2-methyl-1-oxopropan-2-yl)amino]-3,3-dimethyl-4-oxobut-1-en-1-yl}benzyl)-2-methoxy-4-(propan-2-yl)phenyl]-D-glucitol]",65%,potent
